Measurements: patent US11807835B2, “Detergent compositions containing a stabilized enzyme by phosphonates” (ECOLAB USA INC., priority 2016, dated 2023)

Legend:
Type in all cases: biochemical
[1] = test system: amylase; experiment: Amylase activity retention in detergent use solution (4000 ppm, 5 GPG water; ethylidene substrate EPS, HEPES buffer pH 8.0); conditions: base formula
Description: (§1) The enzyme activities in the detergents with different phosphonate levels were tested at 4000 ppm in 5 grains per gallon (GPG) water at 120° F. with various time points collected up to 4 hours, after a use solution was generated from the detergent composition. During the tests, the samples at different time points were collected and immediately frozen in an acetone/dry ice bath and stored in −80° C. before the activity of the enzyme was evaluated. For the use of such an assay, t=0 min was the reference point for 100% enzyme activity.
(§2) Assays of enzyme activity in formulations (% retention) were conducted to simulate a presoak condition in a beaker using the chemistry, temperature, and pH conditions relevant to manual warewash or presoak applications. Enzyme activity is an indicator of the stability of the enzyme in the detergent, specifically in an aqueous use solution within a sump (which is under conditions of high pH, temperature and dilution).
(§3) Enzyme activity under presoak or manual warewash conditions was traced quantitatively using a standard protease assay. Samples were prepared under bench top conditions, whereby the use solution from a detergent composition or detergent was obtained and maintained at a presoak or manual warewash temperature in a stirring water bath. After the time course for assessing enzyme stability is initiated, aliquots were taken at various time points and flash-frozen. A time=0 sample was prepared for each series by dissolving the detergent formulation at room temperature, mixing thoroughly, and flash freezing. Samples were thawed and diluted as necessary in an assay buffer usually for use in the protease assay. A glycine buffer at pH 9.0 is used here. The assay monitored the direct reaction of the protease on a small, commercially available peptidyl substrate, with liberation of the product providing correlation to the active enzyme content. The product was detected using a plate reader with an appreciable dynamic range (upper absorbance limit of the instrument >3.5). Enzyme activity levels were assessed relative to a calibration curve with average values for replicate tests used to map protease stability under presoak or manual warewash use conditions. Enzyme retention at each time point was calculated as the % enzyme activity relative to the time=0 sample.
The analysis by lipase and amylase assay was conducted similarly, except with a different substrate and buffers. For lipase activity, the substrate is p-nitrophenyl valerate, and for amylase, the substrate is an ethylidene substrate (EPS). The buffer used in lipase assay is TRIS (Tris(hydroxymethyl)aminomethane) buffer at pH 8.0, and in amylase assay HEPES (4-(2-hydroxyethyl)-1-piperazineethanesulfonic acid) buffer at pH 8.0.

[2] = test system: enzyme (protease, amylase, lipase); experiment: Overall effects of phosphonates on enzyme activity (Table 3)
Description: as §1, §2
The relative enzyme activities in a use solution of the tested detergent compositions containing a different phosphonate at different concentrations over a period time are listed in Table 4A-Table 4E, Table 5A-Table 5E, and Table 6A-Table 6F.

[3] = test system: protease; experiment: Protease activity retention in detergent use solution (4000 ppm, 5 GPG water; peptidyl substrate, glycine buffer pH 9.0); conditions: base formula, use solution at 120° F.
Description: as §1, §2
The analysis by protease assay was conducted as follows. For the assays, a detergent composition was used to generate an aqueous use solution evaluated herein.
as §3

Monoethanolamine phosphonate [MEAP]
Relative Amylase Enzyme Activity ([1]; phosphonate 0.3 wt-%, use solution at 120° F., time 0 min): 100.00% | Relative Amylase Enzyme Activity ([1]; phosphonate 0.3 wt-%, use solution at 120° F., time 5 min): 100.65% | Relative Amylase Enzyme Activity ([1]; phosphonate 0.3 wt-%, use solution at 120° F., time 10 min): 102.68% | Relative Amylase Enzyme Activity ([1]; phosphonate 0.3 wt-%, use solution at 120° F., time 20 min): 102.07% | Relative Amylase Enzyme Activity ([1]; phosphonate 0.3 wt-%, use solution at 120° F., time 40 min): 91.36% | Relative Amylase Enzyme Activity ([1]; phosphonate 0.3 wt-%, use solution at 120° F., time 60 min): 93.57% | Relative Amylase Enzyme Activity ([1]; phosphonate 0.3 wt-%, use solution at 120° F., time 90 min): 94.85% | Relative Amylase Enzyme Activity ([1]; phosphonate 0.3 wt-%, use solution at 120° F., time 120 min): 102.84% | Relative Amylase Enzyme Activity ([1]; phosphonate 0.3 wt-%, use solution at 120° F., time 150 min): 93.01% | Relative Amylase Enzyme Activity ([1]; phosphonate 0.3 wt-%, use solution at 120° F., time 180 min): 96.46% | Relative Amylase Enzyme Activity ([1]; phosphonate 0.3 wt-%, use solution at 120° F., time 210 min): 100.65% | Relative Amylase Enzyme Activity ([1]; phosphonate 0.3 wt-%, use solution at 120° F., time 240 min): 103.40% | Relative Amylase Enzyme Activity ([1]; phosphonate 0.6 wt-%, use solution at 120º F., time 0 min): 100.00% | Relative Amylase Enzyme Activity ([1]; phosphonate 0.6 wt-%, use solution at 120º F., time 5 min): 95.91% | Relative Amylase Enzyme Activity ([1]; phosphonate 0.6 wt-%, use solution at 120º F., time 10 min): 99.98% | Relative Amylase Enzyme Activity ([1]; phosphonate 0.6 wt-%, use solution at 120º F., time 20 min): 90.83% | Relative Amylase Enzyme Activity ([1]; phosphonate 0.6 wt-%, use solution at 120º F., time 40 min): 91.75% | Relative Amylase Enzyme Activity ([1]; phosphonate 0.6 wt-%, use solution at 120º F., time 60 min): 97.99% | Relative Amylase Enzyme Activity ([1]; phosphonate 0.6 wt-%, use solution at 120º F., time 90 min): 99.08% | Relative Amylase Enzyme Activity ([1]; phosphonate 0.6 wt-%, use solution at 120º F., time 120 min): 97.36% | Relative Amylase Enzyme Activity ([1]; phosphonate 0.6 wt-%, use solution at 120º F., time 150 min): 101.28% | Relative Amylase Enzyme Activity ([1]; phosphonate 0.6 wt-%, use solution at 120º F., time 180 min): 94.70% | Relative Amylase Enzyme Activity ([1]; phosphonate 0.6 wt-%, use solution at 120º F., time 210 min): 99.20% | Relative Amylase Enzyme Activity ([1]; phosphonate 0.6 wt-%, use solution at 120º F., time 240 min): 99.15% | Relative Amylase Enzyme Activity ([1]; phosphonate at 0.1% elemental phosphorus level, use solution at 120º F., time 0 min): 100.00% | Relative Amylase Enzyme Activity ([1]; phosphonate at 0.1% elemental phosphorus level, use solution at 120º F., time 5 min): 95.47% | Relative Amylase Enzyme Activity ([1]; phosphonate at 0.1% elemental phosphorus level, use solution at 120º F., time 10 min): 112.93% | Relative Amylase Enzyme Activity ([1]; phosphonate at 0.1% elemental phosphorus level, use solution at 120º F., time 20 min): 117.67% | Relative Amylase Enzyme Activity ([1]; phosphonate at 0.1% elemental phosphorus level, use solution at 120º F., time 40 min): 122.41% | Relative Amylase Enzyme Activity ([1]; phosphonate at 0.1% elemental phosphorus level, use solution at 120º F., time 60 min): 125.44% | Relative Amylase Enzyme Activity ([1]; phosphonate at 0.1% elemental phosphorus level, use solution at 120º F., time 90 min): 127.99% | Relative Amylase Enzyme Activity ([1]; phosphonate at 0.1% elemental phosphorus level, use solution at 120º F., time 120 min): 123.91% | Relative Amylase Enzyme Activity ([1]; phosphonate at 0.1% elemental phosphorus level, use solution at 120º F., time 150 min): 120.88% | Relative Amylase Enzyme Activity ([1]; phosphonate at 0.1% elemental phosphorus level, use solution at 120º F., time 180 min): 113.29% | Relative Amylase Enzyme Activity ([1]; phosphonate at 0.1% elemental phosphorus level, use solution at 120º F., time 210 min): 112.78% | Relative Amylase Enzyme Activity ([1]; phosphonate at 0.1% elemental phosphorus level, use solution at 120º F., time 240 min): 118.72% | Stability (effects on enzyme activity) [2]: Yes | Relative Protease Enzyme Activity ([3]; phosphonate 0.3 wt-%, lower half of Table 4A, time 5): 98.29% | Relative Protease Enzyme Activity ([3]; phosphonate 0.3 wt-%, lower half of Table 4A, time 20): 90.19% | Relative Protease Enzyme Activity ([3]; phosphonate 0.3 wt-%, lower half of Table 4A, time 90): 72.58% | Relative Protease Enzyme Activity ([3]; phosphonate 0.3 wt-%, lower half of Table 4A, time 120): 68.59% | Relative Protease Enzyme Activity ([3]; phosphonate 0.3 wt-%, lower half of Table 4A, time 150, unit not given): 63.56% | Relative Protease Enzyme Activity ([3]; phosphonate 0.3 wt-%, lower half of Table 4A, time 210): 60.60% | Relative Protease Enzyme Activity ([3]; phosphonate 0.3 wt-%, lower half of Table 4A, time '0'): 103.02% | Relative Protease Enzyme Activity ([3]; phosphonate 0.3 wt-%, lower half of Table 4A, time '40'): 82.48% | Relative Protease Enzyme Activity ([3]; phosphonate 0.3 wt-%, lower half of Table 4A, time 'Blank'): 100.00% | Relative Protease Enzyme Activity ([3]; phosphonate 0.3 wt-%, lower half of Table 4A, time row printed '10'): 96.59% | Relative Protease Enzyme Activity ([3]; phosphonate 0.3 wt-%, lower half of Table 4A, time row printed '60'): 79.14% | Relative Protease Enzyme Activity ([3]; phosphonate 0.3 wt-%, lower half of Table 4A, time row printed '180'): 58.70% | Relative Protease Enzyme Activity ([3]; phosphonate 0.6 wt-%, time 0 min): 100.00% | Relative Protease Enzyme Activity ([3]; phosphonate 0.6 wt-%, time 5 min): 106.85% | Relative Protease Enzyme Activity ([3]; phosphonate 0.6 wt-%, time 10 min): 101.06% | Relative Protease Enzyme Activity ([3]; phosphonate 0.6 wt-%, time 20 min): 104.08% | Relative Protease Enzyme Activity ([3]; phosphonate 0.6 wt-%, time 40 min): 95.75% | Relative Protease Enzyme Activity ([3]; phosphonate 0.6 wt-%, time 60 min): 95.13% | Relative Protease Enzyme Activity ([3]; phosphonate 0.6 wt-%, time 90 min): 86.12% | Relative Protease Enzyme Activity ([3]; phosphonate 0.6 wt-%, time 120 min): 85.48% | Relative Protease Enzyme Activity ([3]; phosphonate 0.6 wt-%, time 150 min): 80.22% | Relative Protease Enzyme Activity ([3]; phosphonate 0.6 wt-%, time 180 min): 82.71% | Relative Protease Enzyme Activity ([3]; phosphonate 0.6 wt-%, time 210 min): 70.64% | Relative Protease Enzyme Activity ([3]; phosphonate 0.6 wt-%, time 240 min): 72.77% | Relative Protease Enzyme Activity ([3]; phosphonate at 0.1% elemental phosphorus, time 0 min): 100.00% | Relative Protease Enzyme Activity ([3]; phosphonate at 0.1% elemental phosphorus, time 5 min): 119.22% | Relative Protease Enzyme Activity ([3]; phosphonate at 0.1% elemental phosphorus, time 10 min): 118.42% | Relative Protease Enzyme Activity ([3]; phosphonate at 0.1% elemental phosphorus, time 20 min): 113.68% | Relative Protease Enzyme Activity ([3]; phosphonate at 0.1% elemental phosphorus, time 40 min): 108.32% | Relative Protease Enzyme Activity ([3]; phosphonate at 0.1% elemental phosphorus, time 60 min): 105.97% | Relative Protease Enzyme Activity ([3]; phosphonate at 0.1% elemental phosphorus, time 90 min): 95.99% | Relative Protease Enzyme Activity ([3]; phosphonate at 0.1% elemental phosphorus, time 120 min): 91.30% | Relative Protease Enzyme Activity ([3]; phosphonate at 0.1% elemental phosphorus, time 150 min): 82.74% | Relative Protease Enzyme Activity ([3]; phosphonate at 0.1% elemental phosphorus, time 180 min): 81.94% | Relative Protease Enzyme Activity ([3]; phosphonate at 0.1% elemental phosphorus, time 210 min): 79.85% | Relative Protease Enzyme Activity ([3]; phosphonate at 0.1% elemental phosphorus, time 240 min): 75.73%
